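Step 1: Grow cells in 96-well plates. Step 2: Expose to compound for 48 hours at 5 concentrations. Step 3: Interpolate endpoints linearly; if unreached, use highest concentration. At the GI50, growth is halved. TGI is the concentration that stops growth completely.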
What was measured:
Assay in all cases: growth of human tumour cells (NCI), 48 h; in the data active means GI50 below about 0.43 µM; inactive means the rest
SNB-19 CNS = tested on: SNB-19 CNS
MDA-MB-435 = tested on: MDA-MB-435
HS 578T breast = tested on: HS 578T breast
MALME-3M melanoma = tested on: MALME-3M melanoma
HT29 colon = tested on: HT29 colon
NCI-H460 lung = tested on: NCI-H460 lung
NCI/ADR-RES ovarian = tested on: NCI/ADR-RES ovarian
SF-268 CNS = tested on: SF-268 CNS
BT-549 breast = tested on: BT-549 breast
EKVX NSCLC = tested on: EKVX NSCLC
UO-31 renal = tested on: UO-31 renal
KM12 colon = tested on: KM12 colon
ACHN renal = tested on: ACHN renal
OVCAR-5 ovarian = tested on: OVCAR-5 ovarian
SF-539 CNS = tested on: SF-539 CNS
SN12C renal = tested on: SN12C renal
DU-145 prostate = tested on: DU-145 prostate
SNB-75 CNS = tested on: SNB-75 CNS
HCT-116 colon = tested on: HCT-116 colon
HOP-92 NSCLC = tested on: HOP-92 NSCLC
SK-MEL-28 melanoma = tested on: SK-MEL-28 melanoma
RPMI-8226 leukemia = tested on: RPMI-8226 leukemia
UACC-257 melanoma = tested on: UACC-257 melanoma
MDA-N = tested on: MDA-N
M14 melanoma = tested on: M14 melanoma
U251 CNS = tested on: U251 CNS
SF-295 CNS = tested on: SF-295 CNS
HOP-62 NSCLC = tested on: HOP-62 NSCLC
NCI-H23 lung = tested on: NCI-H23 lung
SW-620 colon = tested on: SW-620 colon
HCT-15 colon = tested on: HCT-15 colon
CAKI-1 renal = tested on: CAKI-1 renal
SK-MEL-2 melanoma = tested on: SK-MEL-2 melanoma
OVCAR-3 ovarian = tested on: OVCAR-3 ovarian
T-47D breast = tested on: T-47D breast
A498 renal = tested on: A498 renal
A549 NSCLC = tested on: A549 NSCLC
K-562 leukemia = tested on: K-562 leukemia
SR leukemia = tested on: SR leukemia
LOX IMVI melanoma = tested on: LOX IMVI melanoma
UACC-62 melanoma = tested on: UACC-62 melanoma
IGROV1 ovarian = tested on: IGROV1 ovarian
786-0 renal = tested on: 786-0 renal
NCI-H522 lung = tested on: NCI-H522 lung
MCF7 breast = tested on: MCF7 breast
RXF 393 renal = tested on: RXF 393 renal
OVCAR-8 ovarian = tested on: OVCAR-8 ovarian
TK-10 renal = tested on: TK-10 renal
SK-OV-3 ovarian = tested on: SK-OV-3 ovarian
PC-3 prostate = tested on: PC-3 prostate
MOLT-4 leukemia = tested on: MOLT-4 leukemia
HCC-2998 colon = tested on: HCC-2998 colon
COLO 205 colon = tested on: COLO 205 colon
MDA-MB-231 breast = tested on: MDA-MB-231 breast
SK-MEL-5 melanoma = tested on: SK-MEL-5 melanoma
OVCAR-4 ovarian = tested on: OVCAR-4 ovarian
NCI-H226 lung = tested on: NCI-H226 lung
HL-60(TB) leukemia = tested on: HL-60(TB) leukemia
CCRF-CEM leukemia = tested on: CCRF-CEM leukemia

Cc1cc(N2CCCCC2)nc2ccc(Cc3ccc4nc(N5CCCCC5)cc(C)c4c3)cc12
> 100 µM: TGI (SNB-19 CNS) | TGI (MDA-MB-435) | TGI (HS 578T breast) | TGI (MALME-3M melanoma) | TGI (HT29 colon) | TGI (NCI-H460 lung) | TGI (NCI/ADR-RES ovarian) | TGI (SF-268 CNS) | TGI (BT-549 breast) | TGI (EKVX NSCLC) | TGI (UO-31 renal) | TGI (KM12 colon) | TGI (ACHN renal) | TGI (OVCAR-5 ovarian) | TGI (SF-539 CNS) | TGI (SN12C renal) | TGI (DU-145 prostate) | TGI (SNB-75 CNS) | TGI (HCT-116 colon) | TGI (HOP-92 NSCLC) | TGI (SK-MEL-28 melanoma) | TGI (RPMI-8226 leukemia) | TGI (UACC-257 melanoma) | TGI (MDA-N) | TGI (M14 melanoma) | TGI (U251 CNS) | TGI (SF-295 CNS) | TGI (HOP-62 NSCLC) | TGI (NCI-H23 lung) | TGI (SW-620 colon) | TGI (HCT-15 colon) | TGI (CAKI-1 renal) | TGI (SK-MEL-2 melanoma) | TGI (OVCAR-3 ovarian) | TGI (T-47D breast) | TGI (A498 renal) | TGI (A549 NSCLC) | TGI (K-562 leukemia) | TGI (SR leukemia) | TGI (LOX IMVI melanoma) | TGI (UACC-62 melanoma) | TGI (IGROV1 ovarian) | TGI (786-0 renal) | TGI (NCI-H522 lung) | TGI (MCF7 breast) | TGI (RXF 393 renal) | TGI (OVCAR-8 ovarian) | TGI (TK-10 renal) | TGI (SK-OV-3 ovarian) | TGI (PC-3 prostate) | TGI (MOLT-4 leukemia) | TGI (HCC-2998 colon) | TGI (COLO 205 colon) | TGI (MDA-MB-231 breast) | TGI (SK-MEL-5 melanoma) | TGI (OVCAR-4 ovarian) | TGI (NCI-H226 lung)

CCC[CH2][Sn]([CH2]CCC)([CH2]CCC)/[C](=C/[Si](C)(C)c1ccccc1)c1ccc2c(c1)OCO2
33.6 µM: TGI (UO-31 renal)
34.1 µM: TGI (KM12 colon)
48.2 µM: TGI (CAKI-1 renal)
63.5 µM: TGI (SK-MEL-2 melanoma)
42.9 µM: TGI (NCI-H226 lung)
40.3 µM: TGI (MDA-N)
41 µM: TGI (HCT-116 colon) | TGI (SK-OV-3 ovarian)
36.2 µM: TGI (ACHN renal)
86.3 µM: TGI (NCI/ADR-RES ovarian)
92.9 µM: TGI (NCI-H23 lung)
77.8 µM: TGI (RPMI-8226 leukemia)
inactive: GI50 (SNB-19 CNS) 21.3 µM | GI50 (MDA-MB-435) 15.7 µM | GI50 (HS 578T breast) 42.6 µM | GI50 (MALME-3M melanoma) 3.2 µM | GI50 (HT29 colon) 19.2 µM | GI50 (NCI-H460 lung) 21.3 µM | GI50 (NCI/ADR-RES ovarian) 26.2 µM | GI50 (SF-268 CNS) 10.7 µM | GI50 (BT-549 breast) 19.1 µM | GI50 (EKVX NSCLC) 15.2 µM | GI50 (UO-31 renal) 18.6 µM | GI50 (KM12 colon) 16.2 µM | GI50 (ACHN renal) 18.4 µM | GI50 (OVCAR-5 ovarian) 19 µM | GI50 (SF-539 CNS) 36 µM | GI50 (SN12C renal) 19.1 µM | GI50 (DU-145 prostate) 21.7 µM | GI50 (SNB-75 CNS) 58.5 µM | GI50 (HCT-116 colon) 17.9 µM | GI50 (HOP-92 NSCLC) 11.4 µM | GI50 (SK-MEL-28 melanoma) 16.2 µM | GI50 (RPMI-8226 leukemia) 20.7 µM | GI50 (UACC-257 melanoma) 22.4 µM | GI50 (MDA-N) 19.5 µM | GI50 (M14 melanoma) 16.8 µM | GI50 (U251 CNS) 18.8 µM | GI50 (SF-295 CNS) 26.8 µM | GI50 (HOP-62 NSCLC) 23.7 µM | GI50 (NCI-H23 lung) 25.6 µM | GI50 (SW-620 colon) 20.9 µM | GI50 (HCT-15 colon) 20.5 µM | GI50 (CAKI-1 renal) 16 µM | GI50 (SK-MEL-2 melanoma) 23.5 µM | GI50 (OVCAR-3 ovarian) 19.8 µM | GI50 (T-47D breast) 24.6 µM | GI50 (HL-60(TB) leukemia) 15.8 µM | GI50 (A498 renal) 30.5 µM | GI50 (A549 NSCLC) 25.2 µM | GI50 (K-562 leukemia) 22.9 µM | GI50 (SR leukemia) 8.61 µM | GI50 (LOX IMVI melanoma) 21.3 µM | GI50 (IGROV1 ovarian) 16.9 µM | GI50 (786-0 renal) 16 µM | GI50 (NCI-H522 lung) 9.71 µM | GI50 (MCF7 breast) 20.7 µM | GI50 (RXF 393 renal) 22.1 µM | GI50 (OVCAR-8 ovarian) 19.1 µM | GI50 (TK-10 renal) 33.8 µM | GI50 (SK-OV-3 ovarian) 18.5 µM | GI50 (PC-3 prostate) 31.4 µM | GI50 (CCRF-CEM leukemia) 12 µM | GI50 (MOLT-4 leukemia) 17.4 µM | GI50 (COLO 205 colon) 18.7 µM | GI50 (MDA-MB-231 breast) 14.8 µM | GI50 (SK-MEL-5 melanoma) 15.8 µM | GI50 (OVCAR-4 ovarian) 14.9 µM | GI50 (NCI-H226 lung) 19.9 µM
37.9 µM: TGI (IGROV1 ovarian) | TGI (OVCAR-8 ovarian)
44 µM: TGI (OVCAR-5 ovarian)
50.7 µM: TGI (EKVX NSCLC)
58.7 µM: TGI (UACC-257 melanoma)
55.3 µM: TGI (HT29 colon)
41.2 µM: TGI (RXF 393 renal)
39 µM: TGI (SN12C renal) | TGI (COLO 205 colon)
52.3 µM: TGI (NCI-H460 lung)
40.2 µM: TGI (OVCAR-3 ovarian)
59.3 µM: TGI (SW-620 colon)
33.4 µM: TGI (SK-MEL-28 melanoma)
50.6 µM: TGI (HOP-62 NSCLC)
48.6 µM: TGI (DU-145 prostate)
73.9 µM: TGI (K-562 leukemia)
35.4 µM: TGI (HL-60(TB) leukemia)
62 µM: TGI (T-47D breast)
83.3 µM: TGI (MOLT-4 leukemia)
29.4 µM: TGI (HOP-92 NSCLC)
35.2 µM: TGI (M14 melanoma)
49.7 µM: TGI (SNB-19 CNS)
63.9 µM: TGI (SR leukemia)
73.2 µM: TGI (CCRF-CEM leukemia)
49.6 µM: TGI (SF-295 CNS)
15 µM: TGI (MALME-3M melanoma)
> 100 µM: TGI (HS 578T breast) | TGI (SF-539 CNS) | TGI (SNB-75 CNS) | TGI (NCI-H522 lung) | TGI (PC-3 prostate)
98.4 µM: TGI (SF-268 CNS)
44.3 µM: TGI (BT-549 breast)
82.9 µM: TGI (A549 NSCLC)
32.8 µM: TGI (MDA-MB-231 breast)
30.1 µM: TGI (SK-MEL-5 melanoma)
53.7 µM: TGI (MCF7 breast)
36.6 µM: TGI (OVCAR-4 ovarian)
66.7 µM: TGI (LOX IMVI melanoma)
51.8 µM: TGI (HCT-15 colon)
99.1 µM: TGI (TK-10 renal)
31.3 µM: TGI (MDA-MB-435)
30.9 µM: TGI (786-0 renal)
40 µM: TGI (U251 CNS)
70.6 µM: TGI (A498 renal)
